A short description of this data set: gradient 5% acetonitrile 3 min, to 50% in 2 min, to 85% in 15 min, held 3 min, 100 µL/min. The note with it: column: Zorbax Extend-C18 2.1 x 50 mm; eluents: water / acetonitrile, 0.1% formic acid. The method in brief:
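The mobile phases were water and acetonitrile, each with 0.1% formic acid, pumped at 100 μL/min through a Zorbax Extend-C18 column (2.1 × 50 mm, 1.8 μm). Pure standards were injected as mixtures of ~100 molecules and detected by a quadrupole time-of-flight mass spectrometer in positive and negative ionization mode. Retention time came from computationally picked adduct peaks, each inspected by hand.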
Turning to `COc1ccc(CNC(=O)C2CCCN(c3cnc4nccnc4c3)C2)cc1OC` (stereo unspecified), the RP-LC retention time came out at 710 s. The compound `COc1cc(OC)c(NC(=O)N2CCCC(C)(C(=O)NCc3ccccc3)C2)cc1Cl` (stereo unspecified) returned an RP-LC retention time of 897 s.

`CN1CCCc2cc(C(CNC(=O)C(=O)NCc3ccc4c(c3)OCO4)N3CCCCC3)ccc21` (stereo unspecified) yielded an RP-LC retention time of 734 s. In the case of `Cc1nc(-n2cccc2)sc1C(=O)OCc1cc(-c2ccc3c(c2)OCCO3)on1`, the RP-LC retention time is 1210 s. For `CCN(c1nc(N)c(C(=O)N=C(N)N)nc1Cl)C(C)C`, the RP-LC retention time is 779 s. With `COc1cccc(N2CCN(S(=O)(=O)c3cn(C(C)C)c4ncccc34)CC2)c1` the figure was 1060 s; with `COCCNc1c(-c2cccc(F)c2)nc2sc(C(N)=O)c(C)n12`, 696 s; with `CCc1noc(C2(NC(=O)c3ccccc3Cl)CCCCC2)n1`, 936 s.

For the compound `O=C(NCc1ccc(-c2noc(Cc3ccc(F)cc3)n2)s1)C1CC1`, the RP-LC retention time was 894 s. Take `CSc1ccc(CNC(=O)C2CCN(c3c(C#N)cnc4ccc(Cl)cc34)CC2)cc1`: the RP-LC retention time came out at 960 s. `COc1ccc(-c2cn3c(CC(=O)Nc4ccc(C)cn4)csc3n2)cc1OC` yielded an RP-LC retention time of 653 s. `COCc1cc(=O)n(CC(=O)Nc2cc(F)ccc2F)c(N2CCOCC2)n1` showed an RP-LC retention time of 838 s. The compound `CCOC(=O)Cc1sc(Nc2nc3ccccc3s2)nc1-c1ccccc1` returned an RP-LC retention time of 1170 s. `CCc1csc(-c2ccc(N3CCN(C(=O)c4ccc(F)c(F)c4)CC3)nc2)n1` returned an RP-LC retention time of 955 s. To `Cc1ccc(C)c(-c2coc(-c3ccc(NC(=O)c4ccc(Br)o4)cc3)n2)c1` belongs 1310 s; to `COc1ccc(S(=O)(=O)N2CCc3nn(CC4CC4)c(=O)n3CC2)cc1Cl`, 786 s; to `Cc1cccc(NC(=O)C2CCN(S(=O)(=O)c3cc(C(=O)N4CCCC4)cs3)CC2)c1`, 819 s. `O=C(NCC1CCCO1)c1cn2ccccc2n1` (stereo unspecified) displayed an RP-LC retention time of 565 s. To `CCc1ccc(OCc2nc(C)c(C(=O)Nc3nc(-c4ccccc4OC)cs3)s2)cc1` belongs 1310 s; to `Cc1ccc(CNC(=O)N2CCN(Cc3c(C)noc3C)CC2)cc1`, 611 s; to `O=S(=O)(c1cccnc1)N1CCN(Cc2nnnn2-c2ccc(F)c(F)c2)CC1`, 733 s.

Take `Cc1ccc(C(=O)N2CCc3sc(C(=O)N4CCC5(CC4)OCCO5)cc3C2)cc1`: the RP-LC retention time was 793 s. In the case of `O=C(Cn1cc(-c2nnco2)c2ccccc21)NCc1ccccc1F`, the RP-LC retention time was found to be 755 s. As for `Cn1ncc2c(N3CCCC3)nc(C(=O)NCc3ccc(F)cc3)nc21`, the RP-LC retention time was 790 s. The compound `Cc1cccc(S(=O)(=O)N2CCC3(C2)C(=O)N(C)c2ccccc23)c1` (stereo unspecified) had an RP-LC retention time of 910 s. `CC(C)C(=O)N1CCC(N2C[C@H](O)C[C@H]2C(=O)NC2CCCCC2)CC1`: the RP-LC retention time turned out to be 603 s. `CC(=O)NCc1ccc(-c2noc(-c3ccc(N(C)C)cc3)n2)s1`: the RP-LC retention time amounted to 861 s.

`COC1C(=O)N(CC2CC2)C12CCN(C(=O)C1CC1)CC2` (stereo unspecified) returned an RP-LC retention time of 639 s. In turn, `CNC(=O)C1CCCN1C(=O)Nc1cccc(C)c1` (stereo unspecified) came in with an RP-LC retention time of 635 s.

For `CC(C)c1nc2c(NC(=O)c3ccc(Br)o3)cccn2n1`, the RP-LC retention time was determined as 908 s. To `Cc1cccc(Sc2nccnc2N2CCC(C(=O)NCCCc3ccccc3)CC2)c1` belongs 1140 s; to `CC(NC(=O)c1cc2ccccc2[nH]1)C(=O)N1CCN(c2ccccn2)CC1` (stereo unspecified), 612 s; to `O=C(NC1CC1)c1ccc(N2CCC(NCc3cc(Br)ccc3O)C2)nc1` (stereo unspecified), 576 s. For `CCOC(=O)c1[nH]c(C)c(CCC(=O)NC(C)c2ccc3c(c2)OCCO3)c1C` (stereo unspecified), the RP-LC retention time amounted to 821 s. With `CCn1cnc(S(=O)(=O)N2CCCC(C(=O)Nc3cccc(F)c3)C2)c1` (stereo unspecified) the figure was 760 s. Regarding `Cc1noc(-c2cc(=O)n(CC(=O)Nc3ccc4c(c3)OCO4)c3ccccc23)n1`, the RP-LC retention time was 831 s. The compound `C=CCN1C(=O)COc2ccc(-c3csc(NC(C)=O)n3)cc21` had an RP-LC retention time of 762 s. In turn, `O=C(c1cccc(Cl)c1)N1CCN(c2cc(-c3ccc(Cl)cc3)[nH]n2)CC1` displayed an RP-LC retention time of 917 s. In the case of `O=S(=O)(c1ccc2nncn2c1)N(Cc1cc(F)cc(F)c1)c1cccc(F)c1`, the RP-LC retention time amounted to 895 s. To `CCN1C(=O)COc2ccc(-c3noc(C4CC(=O)N(c5ccc(OC)cc5)C4)n3)cc21` (stereo unspecified) belongs 842 s; to `Cc1nn(C)cc1CN(C)C(=O)CCC1CCCN(c2cc(NC3CC3)ncn2)C1` (stereo unspecified), 597 s; to `O=C(Cn1ncc2c(N3CCN(c4ccccn4)CC3)ncnc21)Nc1ccc(Cl)cc1`, 643 s.

`CCn1nnc(NCc2ccc(-c3cc(Cl)cc(Cl)c3)o2)n1` returned an RP-LC retention time of 1140 s. To `Fc1cccc(-c2noc(-c3cc(N4CCN(c5ccccn5)CC4)nc4ccccc34)n2)c1` belongs 962 s; to `CCOc1cccc(-c2noc(Cn3c(=O)n(-c4ccccc4F)c(=O)c4sccc43)n2)c1`, 1050 s. With `COc1ccc(OC)c(C(O)CN2CCN(c3cc(C)ccc3C)CC2)c1` (stereo unspecified) the figure was 758 s; with `O=C(c1cc2cc(Cl)ccc2[nH]1)N1CCOCC1`, 860 s. Take `COc1cccc(CC2C(=O)Nc3ccc(Cl)cc32)c1OC` (stereo unspecified): the RP-LC retention time is 900 s. In the case of `COc1ccc(S(=O)(=O)N2C[C@H]3CN(S(=O)(=O)c4ccccc4)C[C@@H](C2)O3)cc1`, the RP-LC retention time stood at 893 s. As to `Cc1noc(-c2ccc(OC3CN(C(=O)Cc4cccs4)C3)cc2)n1`, the RP-LC retention time came out at 857 s. For `COc1cccc(N2CCN(C(=O)c3cn(-c4ccc(NC(C)=O)cn4)cn3)CC2)c1`, the RP-LC retention time stood at 680 s. As to `O=C1NCCCn2nc(C3CCN(S(=O)(=O)c4ccc5c(c4)CCC5)CC3)cc21`, the RP-LC retention time was 800 s. As to `CCn1nc(C)n2cc(S(=O)(=O)NCc3ccc(F)c(Cl)c3)cc2c1=O`, the RP-LC retention time amounted to 930 s.

With `CCN(Cc1ccc(OC)cc1)Cc1cc(=O)n2ccc(C)cc2n1`, the RP-LC retention time came to 619 s. In turn, `Cc1nnc2ccc(C(=O)NC(C)C)cn12` returned an RP-LC retention time of 590 s. Take `Cc1ccccc1CC(=O)NCC(=O)Nc1nc2ccccc2[nH]1`: the RP-LC retention time turned out to be 639 s. As to `CCOc1ccc(NC(=O)c2oc3ccc(F)cc3c2C)c2cccnc12`, the RP-LC retention time came out at 710 s. With `Cc1ccc(Cc2nc(-c3ccc4oc(C)nc4c3)no2)cc1` the figure was 1070 s. Compound `NC(=O)C1CCN(S(=O)(=O)c2cc(-c3noc(C4CCC4)n3)cs2)CC1` yielded an RP-LC retention time of 777 s.

`CCOC(=O)c1ccc(OC(=O)CCCCCN=C(N)N)cc1` showed an RP-LC retention time of 750 s. With `CC(C)c1c(C2CCN(C(=O)C3(c4ccccc4)CC3)CC2)noc1N` the figure was 813 s. On to `CCCn1cc(CCNS(=O)(=O)c2ccc(F)c(F)c2)c2cccnc21`, for which the RP-LC retention time stood at 884 s. In turn, `Cc1noc(CNC(=O)COc2cccc3c2OC(C)(C)C3)n1` came in with an RP-LC retention time of 724 s.

In turn, `CCNc1nc(-c2ccccc2F)no1` came in with an RP-LC retention time of 761 s.

`CC(C)N1CCC2(CC1)N=C(c1ccc(Br)cc1)CC(c1cc(Cl)ccc1O)N2` (stereo unspecified) returned an RP-LC retention time of 711 s. Turning to `Cc1cc(C)cc(S(=O)(=O)NCc2c(-c3ccccc3)nc3sc(C)nn23)c1`, the RP-LC retention time worked out at 921 s. As for `COC(=O)c1ccc2c(=O)n(-c3ccc4c(c3)OCO4)c(N3CCN(c4ccccc4)CC3)nc2c1`, the RP-LC retention time came out at 1110 s.

The compound `O=S(=O)(Nc1ccc(Cn2cncn2)cc1)c1cc(F)cc(F)c1` came in with an RP-LC retention time of 708 s. `CCCNc1nnc(-c2nc(C3CC3)no2)c2ccccc12`: the RP-LC retention time is 660 s.

Regarding `CC1CCCN(CCCNC(=O)c2cc(S(=O)(=O)N3CCCCC3)ccc2Cl)C1` (stereo unspecified), the RP-LC retention time amounted to 661 s.

In turn, `COC(=O)c1ccc2c(=O)n(-c3cc(C)cc(C)c3)c(N3CCSC3)nc2c1` yielded an RP-LC retention time of 1180 s. `CC(C)n1cnc2cc(CNC(=O)C3(c4ccccc4)CC3)ccc21` gave an RP-LC retention time of 648 s. Consider `CCc1noc(C)c1-c1[nH]c2ccccc2c1C(=O)C(=O)N(C)C`, for which the RP-LC retention time turned out to be 714 s.

Compound `CS(=O)(=O)N1CCC(C(=O)Nc2cccc(F)c2)Oc2ccc(Cl)cc21` (stereo unspecified) displayed an RP-LC retention time of 982 s. The compound `CCOc1ccc(Cc2nc(-c3ccc4oc(C)nc4c3)no2)cc1` gave an RP-LC retention time of 1250 s. The compound `Cc1cc(OCC(=O)N2CCC(C)CC2)nc(-c2ccc(Cl)cc2)n1` showed an RP-LC retention time of 1150 s. `Cc1cc(NC(=O)CN2C(=O)NC(c3ccccc3Cl)C3=C2COC3=O)ccc1Br` (stereo unspecified) returned an RP-LC retention time of 887 s. `Cc1ccc(C(=O)Nc2ccc(-c3nc(Cn4cccn4)c(C)o3)cc2)s1` yielded an RP-LC retention time of 890 s.

`COCCCNC(=O)COc1ccccc1-c1nnc(-c2ccccc2)o1` yielded an RP-LC retention time of 900 s.

`Cc1[nH]c(-c2ccccc2)cc1C(=O)NC1CCCCC1` returned an RP-LC retention time of 898 s. In turn, `COc1ccc(-c2csc(NC(=O)COc3ccccc3Cl)n2)cc1Br` displayed an RP-LC retention time of 1220 s.

The values above are taken from the METLIN SMRT retention time set (Domingo-Almenara et al. 2019).
